# According to patent US20260124213A1, “STAPHYLOCOCCUS AUREUS PBP4 INHIBITORS AND METHOD OF USE” (UNIVERSITY OF ROCHESTER, priority 2022, published 2026):
# Several values for one entry are separate records, joined by “and”; a condition that tells them apart may be missing. Identical values can stand only once. Like-named read-outs stand apart in the source and are kept apart here.
# How the values were obtained:
# [1] = system: MRSA strain AH-1263; assay: Broth microdilution antibiotic potentiation; assay type: cell-based, Staphylococcus aureus; conditions: AH-1263; for MIC: Staphylococcus aureus, MRSA
# Method: (§1) Broth Microdilution Method for Antibiotic Potentiation with MRSA Strains. Bacteria were cultured for 6 hours in CAMHB and sub-cultured to 5×10^5 CFU/mL in CAMHB. Subcultures were aliquoted (4 mL) into culture tubes and then inoculated with compound from 10 mM or 100 mM stock in DMSO to the desired concentration. […]. Bacteria treated with antibiotic alone served as the control. Samples from the secondary culture tubes were then aliquoted (200 μL) into the first row of wells of a 96-well microtiter plate. Rows 2-11 were filled (100 μL) with the remaining 4 mL of bacterial subculture containing the adjuvant. Row 12 was filled (100 μL) with uninoculated media. From row 1, 100 μL was transferred to row two and mixed 5-8 times before being transferred to row 3. This procedure was used to serial dilute the rest of the rows through 10. The microtiter plate was then covered in Press 'n Seal and incubated at 37° C.
# [2] = system: MRSA strain AH-2204; assay: Broth microdilution antibiotic potentiation; assay type: cell-based, Staphylococcus aureus; conditions: Staphylococcus aureus, MRSA, AH-2204
# Method: as §1
# [3] = system: MRSA strain ATCC BAA-1556; assay: Broth microdilution antibiotic potentiation; assay type: cell-based, Staphylococcus aureus; conditions: ATCC BAA-1556; for MIC: Staphylococcus aureus
# Method: as §1
# [4] = system: S. aureus strain USA300; assay: microbe, parasite or virus in culture; assay type: cell-based, Staphylococcus aureus
# Method: (§2) Bacterial Strains and Chemicals. The bacterial strains used in these studies include: USA300, USA300Δpbp4, USA300Δpbp4 pPBP4, COL, COLn, COLnex, CRB, and CRBΔpbp4. S. aureus strain USA300 is a predominant cause of U.S. community-associated MRSA infections, whereas strain COL is a commonly studied hospital-associated MRSA strain. The S. aureus USA300 pbp4-null strain (USA300Δpbp4) and PBP4 complementation strain (USA300Δpbp4 pPBP4) have been previously described. […] All strains were grown in Mueller Hinton (MH) broth at 37° C., as indicated.
# (§3) Prior to identifying new PBP4 inhibitors, a screening paradigm to identify existing molecules that reverse the antibiotic resistance profile of wild type cells to that of a pbp4 mutant was developed. To define screening conditions three strains were employed: 1) a wild type USA300 MRSA strain, 2) an isogenic pbp4 deletion strain, and 3) a complemented strain harboring a plasmid wildtype pbp4 copy. The antibiotic susceptibility profile of each strain was measured to determine the magnitude with which PBP4 affects resistance to various antibiotics (Table 1).
# [5] = system: USA300Δpbp4; assay: MIC testing of antibiotics; assay type: cell-based, Staphylococcus aureus; conditions: for MIC: Staphylococcus aureus, read-out: Minimum inhibitory concentration
# Method: as §2, §3
# [6] = system: USA300Δpbp4 pPBP4; assay: microbe, parasite or virus in culture; assay type: cell-based; conditions: Staphylococcus aureus, read-out: Minimum inhibitory concentration
# [7] = system: COLnex; assay: MIC testing of antibiotics; assay type: cell-based; conditions: Staphylococcus aureus, read-out: Minimum inhibitory concentration
# Method: as §2
# (§4) Prioritized compounds were tested for their ability to reverse PBP4 mediated antibiotic resistance in another S. aureus background using three isogenic strains that became available during the study (generous gift from Dr. S. Chatterjee; University of Maryland). These strains included: 1) COLnex, which is a methicillin susceptible strain, 2) CRB, a methicillin/ceftobiprole resistant strain of COLnex that overproduces PBP4, and 3) CRBΔpbp4, a methicillin susceptible strain of CRB lacking the pbp4 gene.
# [8] = system: CRBΔpbp4; assay: MIC testing of antibiotics; assay type: cell-based; conditions: Staphylococcus aureus, read-out: Minimum inhibitory concentration
# Method: as §2, §4
# [9] = system: CRB; assay: MIC testing of antibiotics; assay type: cell-based, Staphylococcus aureus; conditions: for MIC: Staphylococcus aureus, read-out: Minimum inhibitory concentration, CRB
# Method: as §2, §4
# [10] = system: S. aureus strain CRB; assay: microbe, parasite or virus in culture; assay type: cell-based, Staphylococcus aureus; conditions: Staphylococcus aureus, read-out: BPR (ceftobiprole) MIC, Alone
# Method: Fractional Inhibitory Concentration Index (FICI). Fractional inhibitory testing was performed in checkerboard format to determine whether putative PBP4 inhibitors potentiated the antimicrobial effects of β-lactams toward S. aureus strains USA300 and CRB, as previously described (Chojacnki, et al. Journal of Antimicrobial Chemotherapy, 2003, 52, 1). To do so, in triplicate 10^5 CFU of each strain (10 μL) was added to individual wells of a microtiter plate containing 90 μL MH media. […] Plates were incubated at 37° C. for 16-20 hour and the lowest concentration of each test agent that inhibited bacterial growth alone or in combination was determined by the naked eye. The fractional inhibitory concentration (FIC) index was calculated using the formula: FIC of A (MIC of drug A in combination/MIC of drug A alone)+FIC B ([…]/MIC of drug B alone). A synergistic interaction was defined as a FICI value of less than 0.5, an additive interaction was defined as a FICI value between 0.5 and 1.0, an indifferent interaction was defined as a FICI value between 1.0 and 4.0, and an antagonistic interaction was defined as a FICI value of more than 4.0.
# [11] = system: strain CRBΔpbp4; assay: microbe, parasite or virus in culture; assay type: cell-based, Staphylococcus aureus; conditions: Staphylococcus aureus, read-out: BPR (ceftobiprole) MIC, Alone
# [12] = read-out: Amoxicillin MIC, no compound (—)
# [13] = Staphylococcus aureus, USA300, read-out: Minimum inhibitory concentration
# [14] = read-out: Cefotaxime MIC, no compound (—)
# [15] = read-out: Cephalothin MIC, no compound (—)
# [16] = read-out: Imipenem MIC, no compound (—)
# [17] = read-out: Piperacillin MIC, no compound (—)
Molecule,"MIC [4, 13] [µg/mL]",MIC [5] [µg/mL],MIC [6] [µg/mL],MIC [7] [µg/mL],MIC [8] [µg/mL],MIC [9] [µg/mL],other results
"CC1(C)S[C@@H]2[C@H](NC(=O)[C@H](N)c3ccc(O)cc3)C(=O)N2[C@H]1C(=O)O [Amoxicillin, amoxicillin]",,,,,,,"Amoxicillin MIC, no compound (—) [1]: 8 µg/mL; MIC [1, 12]: 4 µg/mL; MIC [2, 12]: 2 µg/mL; MIC [3, 12]: 8 µg/mL"
"Nc1nc(/C(=N/O)C(=O)N[C@@H]2C(=O)N3C(C(=O)O)=C(/C=C4\CCN([C@@H]5CCNC5)C4=O)CS[C@H]23)ns1 [BPR, ceftobiprole]",0.5,0.25,0.5,0.25,0.25,128,Minimum inhibitory concentration ([9]; CRB): >128 µg/mL; MIC [10]: 128 µg/mL; MIC [11]: 0.25 µg/mL
"O=C(O)c1cn(C2CC2)c2cc(N3CCNCC3)c(F)cc2c1=O [CIP, ciprofloxacin]",,1,,0.25,0.25,0.5,"MIC ([4]; Staphylococcus aureus, USA300; read-out: Minimum inhibitory concentration): 4 µg/mL; Minimum inhibitory concentration ([4]; USA300): 4 µg/mL; Minimum inhibitory concentration ([5]; USA300Δpbp4): 1 µg/mL"
"CO/N=C(\C(=O)N[C@@H]1C(=O)N2C(C(=O)O)=C(COC(C)=O)CS[C@H]12)c1csc(N)n1 [Cefotaxime, cefotaxime]",,,,,,,"Cefotaxime MIC, no compound (—) [1]: 32 µg/mL; MIC [1, 14]: 16 µg/mL; Cefotaxime MIC, no compound (—) [3]: 32 µg/mL; MIC [3, 14]: 16 µg/mL"
"CC(=O)OCC1=C(C(=O)O)N2C(=O)[C@@H](NC(=O)Cc3cccs3)[C@H]2SC1 [Cephalothin, cephalothin]",,,,,,,"Cephalothin MIC, no compound (—) [1]: 32 µg/mL; MIC [1, 15]: 16 µg/mL; Cephalothin MIC, no compound (—) [3]: 16 µg/mL; MIC [3, 15]: 32 µg/mL"
"C[C@@H](O)[C@H]1C(=O)N2C(C(=O)O)=C(SCCN=CN)C[C@H]12 [Imipenem, imipenem]",,,,,,,"MIC [1, 16]: 16 µg/mL; MIC [2, 16]: 32 µg/mL; MIC [3, 16]: 32 µg/mL"
"C[C@H]1COc2c(N3CCN(C)CC3)c(F)cc3c(=O)c(C(=O)O)cn1c23 [LEV, levofloxacin]",1,0.5,1,0.25,0.25,0.5,
"C[C@@H](O)[C@H]1C(=O)N2C(C(=O)O)=C(S[C@@H]3CN[C@H](C(=O)N(C)C)C3)[C@H](C)[C@H]12 [MER, meropenem]",4,2,4,1,1,64,Minimum inhibitory concentration ([4]; USA300): 4 µg/mL
"CN(C)c1ccc(O)c2c1C[C@H]1C[C@H]3[C@H](N(C)C)C(O)=C(C(N)=O)C(=O)[C@@]3(O)C(O)=C1C2=O [MIN, minocycline]",0.5,0.5,0.5,0.5,0.5,0.5,
"C/C(=C\C(=O)OCCCCCCCCC(=O)O)C[C@@H]1OC[C@H](C[C@@H]2O[C@H]2[C@@H](C)[C@H](C)O)[C@@H](O)[C@H]1O [MUP, mupirocin]",0.125,0.125,0.125,0.03,0.03,0.03,
"CCOc1ccc2ccccc2c1C(=O)N[C@@H]1C(=O)N2[C@@H]1SC(C)(C)[C@@H]2C(=O)O [NAF, nafcillin]",8,4,8,0.25,0.25,> 128,Minimum inhibitory concentration ([4]; USA300): 8 µg/mL
"CC1(C)S[C@@H]2[C@H](NC(=O)Cc3ccccc3)C(=O)N2[C@H]1C(=O)O [Penicillin G, penicillin G]",,,,,,,"Penicillin G MIC, no compound (—) [1]: 16 µg/mL and 8 µg/mL"
"CCN1CCN(C(=O)N[C@@H](C(=O)N[C@@H]2C(=O)N3[C@@H]2SC(C)(C)[C@@H]3C(=O)O)c2ccccc2)C(=O)C1=O [Piperacillin, piperacillin]",,,,,,,"MIC [1, 17]: 16 µg/mL; MIC [2, 17]: 4 µg/mL; MIC [3, 17]: 16 µg/mL"
"NC[C@H]1O[C@H](O[C@H]2[C@H](O)[C@@H](O[C@H]3O[C@H](CO)[C@@H](O)[C@H](N)[C@H]3O)[C@H](N)C[C@@H]2N)[C@H](N)C[C@@H]1O [TOB, tobramycin]",1,1,1,0.06,0.06,0.06,
colistin,,,,,,,Minimum inhibitory concentration ([4]; USA300): 128 µg/mL
